Measured values reported in the supplement of paper PMC10307832.

How the values were obtained:
Experiment in all cases: relative viability (nuclei count vs DMSO), 5 days (fraction); higher = more cells survive
A-427 = tested on: A-427
Method in brief: (§1)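 Lung cancer cell lines, seeded in 1536-well plates, were treated the following day by pin tool with a single drug or with five library-drug doses (not always all listed) in √10 steps on top of a fixed anchor-drug dose. Cells were fixed and nuclei stained in one step after 5 days, and nuclei were counted. Relative viability is the nuclei count for treated wells divided by that for vehicle wells, reported as medians of duplicate plates.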

ABC-1 = tested on: ABC-1
Method in brief: as §1

COR-L 105 = tested on: COR-L 105
Method in brief: as §1

COR-L23 = tested on: COR-L23
Method in brief: as §1

EKVX = tested on: EKVX
Method in brief: as §1

EMC-BAC-2 = tested on: EMC-BAC-2
Method in brief: as §1

EPLC-272H = tested on: EPLC-272H
Method in brief: as §1

HCC-44 = tested on: HCC-44
Method in brief: as §1

HCC-827 = tested on: HCC-827
Method in brief: as §1

LU99A = tested on: LU99A
Method in brief: as §1

NCI-H1437 = tested on: NCI-H1437
Method in brief: as §1

NCI-H1666 = tested on: NCI-H1666
Method in brief: as §1

NCI-H1792 = tested on: NCI-H1792
Method in brief: as §1

NCI-H2009 = tested on: NCI-H2009
Method in brief: as §1

NCI-H2023 = tested on: NCI-H2023
Method in brief: as §1

NCI-H2087 = tested on: NCI-H2087
Method in brief: as §1

NCI-H3122 = tested on: NCI-H3122
Method in brief: as §1

NCI-H520 = tested on: NCI-H520
Method in brief: as §1

PC-14 = tested on: PC-14
Method in brief: as §1

RERF-LC-KJ = tested on: RERF-LC-KJ
Method in brief: as §1

SK-LU-1 = tested on: SK-LU-1
Method in brief: as §1

SW 1573 = tested on: SW 1573
Method in brief: as §1

Cc1cn(-c2cc(NC(=O)c3ccc(C)c(Nc4nccc(-c5cccnc5)n4)c3)cc(C(F)(F)F)c2)cn1 [Nilotinib] + CS(=O)(=O)CCNCc1ccc(-c2ccc3ncnc(Nc4ccc(OCc5cccc(F)c5)c(Cl)c4)c3c2)o1 [Lapatinib] (partner 2 µM)
relative viability (A-427; first compound 0.001 µM): 1.05 | relative viability (A-427; first compound 0.01 µM): 1.13 | relative viability (A-427; first compound 0.03162 µM): 1.08 | relative viability (A-427; first compound 0.1 µM): 0.211 | relative viability (ABC-1; first compound 0.001 µM): 0.925 | relative viability (ABC-1; first compound 0.003162 µM): 1.09 | relative viability (ABC-1; first compound 0.01 µM): 1.35 | relative viability (ABC-1; first compound 0.03162 µM): 0.955 | relative viability (ABC-1; first compound 0.1 µM): 0.952 | relative viability (COR-L 105; first compound 0.001 µM): 0.418 | relative viability (COR-L 105; first compound 0.01 µM): 0.375 | relative viability (COR-L 105; first compound 0.03162 µM): 0.352 | relative viability (COR-L 105; first compound 0.1 µM): 0.286 | relative viability (COR-L23; first compound 0.001 µM): 0.834 | relative viability (COR-L23; first compound 0.003162 µM): 1.53 | relative viability (COR-L23; first compound 0.01 µM): 1.7 | relative viability (COR-L23; first compound 0.03162 µM): 0.822 | relative viability (COR-L23; first compound 0.1 µM): 0.825 | relative viability (EKVX; first compound 0.001 µM): 0.211 | relative viability (EKVX; first compound 0.003162 µM): 0.195 | relative viability (EKVX; first compound 0.01 µM): 0.214 | relative viability (EKVX; first compound 0.03162 µM): 0.187 | relative viability (EKVX; first compound 0.1 µM): 0.204 | relative viability (EMC-BAC-2; first compound 0.001 µM): 0.834 | relative viability (EMC-BAC-2; first compound 0.003162 µM): 0.952 | relative viability (EMC-BAC-2; first compound 0.01 µM): 0.924 | relative viability (EMC-BAC-2; first compound 0.03162 µM): 0.784 | relative viability (EMC-BAC-2; first compound 0.1 µM): 0.606 | relative viability (EPLC-272H; first compound 0.001 µM): 0.877 | relative viability (EPLC-272H; first compound 0.003162 µM): 1.23 | relative viability (EPLC-272H; first compound 0.01 µM): 0.775 | relative viability (EPLC-272H; first compound 0.03162 µM): 0.976 | relative viability (EPLC-272H; first compound 0.1 µM): 0.402 | relative viability (HCC-44; first compound 0.001 µM): 0.994 | relative viability (HCC-44; first compound 0.003162 µM): 1.09 | relative viability (HCC-44; first compound 0.01 µM): 0.822 | relative viability (HCC-44; first compound 0.03162 µM): 0.966 | relative viability (HCC-44; first compound 0.1 µM): 0.869 | relative viability (HCC-827; first compound 0.001 µM): 0.233 | relative viability (HCC-827; first compound 0.003162 µM): 0.184 | relative viability (HCC-827; first compound 0.01 µM): 0.154 | relative viability (HCC-827; first compound 0.1 µM): 0.184 | relative viability (LU99A; first compound 0.001 µM): 0.954 | relative viability (LU99A; first compound 0.003162 µM): 0.924 | relative viability (LU99A; first compound 0.01 µM): 0.921 | relative viability (LU99A; first compound 0.03162 µM): 0.775 | relative viability (LU99A; first compound 0.1 µM): 0.153 | relative viability (NCI-H1437; first compound 0.001 µM): 0.687 | relative viability (NCI-H1437; first compound 0.003162 µM): 0.973 | relative viability (NCI-H1437; first compound 0.01 µM): 0.858 | relative viability (NCI-H1437; first compound 0.03162 µM): 0.614 | relative viability (NCI-H1437; first compound 0.1 µM): 0.203 | relative viability (NCI-H1666; first compound 0.001 µM): 0.772 | relative viability (NCI-H1666; first compound 0.003162 µM): 0.901 | relative viability (NCI-H1666; first compound 0.01 µM): 0.461 | relative viability (NCI-H1666; first compound 0.03162 µM): 0.655 | relative viability (NCI-H1666; first compound 0.1 µM): 0.641 | relative viability (NCI-H1792; first compound 0.001 µM): 0.899 | relative viability (NCI-H1792; first compound 0.01 µM): 1.12 | relative viability (NCI-H1792; first compound 0.1 µM): 1.24 | relative viability (NCI-H2009; first compound 0.001 µM): 0.788 | relative viability (NCI-H2009; first compound 0.003162 µM): 1.1 | relative viability (NCI-H2009; first compound 0.01 µM): 1.08 | relative viability (NCI-H2009; first compound 0.03162 µM): 1.01 | relative viability (NCI-H2009; first compound 0.1 µM): 0.191 | relative viability (NCI-H2023; first compound 0.001 µM): 0.702 | relative viability (NCI-H2023; first compound 0.003162 µM): 0.611 | relative viability (NCI-H2023; first compound 0.01 µM): 0.739 | relative viability (NCI-H2023; first compound 0.03162 µM): 0.775 | relative viability (NCI-H2023; first compound 0.1 µM): 0.15 | relative viability (NCI-H2087; first compound 0.001 µM): 0.62 | relative viability (NCI-H2087; first compound 0.003162 µM): 1.21 | relative viability (NCI-H2087; first compound 0.01 µM): 1.17 | relative viability (NCI-H2087; first compound 0.03162 µM): 0.686 | relative viability (NCI-H2087; first compound 0.1 µM): 0.289 | relative viability (NCI-H3122; first compound 0.001 µM): 0.988 | relative viability (NCI-H3122; first compound 0.003162 µM): 1.07 | relative viability (NCI-H3122; first compound 0.01 µM): 0.991 | relative viability (NCI-H3122; first compound 0.03162 µM): 1.01 | relative viability (NCI-H3122; first compound 0.1 µM): 0.98 | relative viability (NCI-H520; first compound 0.001 µM): 0.678 | relative viability (NCI-H520; first compound 0.01 µM): 0.927 | relative viability (NCI-H520; first compound 0.03162 µM): 0.707 | relative viability (NCI-H520; first compound 0.1 µM): 0.383 | relative viability (PC-14; first compound 0.001 µM): 0.328 | relative viability (PC-14; first compound 0.003162 µM): 0.422 | relative viability (PC-14; first compound 0.01 µM): 0.367 | relative viability (PC-14; first compound 0.03162 µM): 0.318 | relative viability (PC-14; first compound 0.1 µM): 0.277 | relative viability (RERF-LC-KJ; first compound 0.001 µM): 0.874 | relative viability (RERF-LC-KJ; first compound 0.003162 µM): 0.986 | relative viability (RERF-LC-KJ; first compound 0.01 µM): 0.977 | relative viability (RERF-LC-KJ; first compound 0.03162 µM): 0.882 | relative viability (RERF-LC-KJ; first compound 0.1 µM): 0.888 | relative viability (SK-LU-1; first compound 0.001 µM): 0.769 | relative viability (SK-LU-1; first compound 0.003162 µM): 0.855 | relative viability (SK-LU-1; first compound 0.01 µM): 1.08 | relative viability (SK-LU-1; first compound 0.03162 µM): 0.558 | relative viability (SK-LU-1; first compound 0.1 µM): 0.6 | relative viability (SW 1573; first compound 0.003162 µM): 1.26 | relative viability (SW 1573; first compound 0.01 µM): 1.17 | relative viability (SW 1573; first compound 0.03162 µM): 1.1 | relative viability (SW 1573; first compound 0.1 µM): 1.27
